One data set relates to SK-MEL-28 melanoma cells. Put plainly: Apoptosis assay (cell death detection ELISA) with or without site markers. Format: cell-based, human. The following applies: SK-MEL-28, warfarin 10 µM. From the text:
Serum is commonly used as a supplement in cell culture media. It supports cell growth and product formation by providing a broad spectrum of macromolecules, attachment factors, nutrients, and hormone and growth factors. The most commonly used animal serum supplement is foetal bovine serum, FBS (alternatively called foetal calf serum—FCS). Because BSA is a major component of FBS, the in vitro activity of catechins on tumour cells might be affected by their interaction with BSA. The effect of albumin binding on the biological activity of polyphenols is unclear. Does the bound ligand have some biological activity or does the polyphenol have to be in the free form to be active? To answer this question and to determine whether BSA-catechin interactions increase or decrease catechin anti-tumour activity, the proapoptotic activity of TMCG on SK-MEL-28 melanoma cells was probed in the presence of warfarin or ibuprofen [Figure 5(b)]. […] Because the binding of catechins to BSA seems to control drug availability, the lower affinity of TMCG and TMECG for serum albumins, with respect to natural tea catechins, might contribute to the high in vivo anti-tumour activity of these methylated synthetic catechins. […]
The human melanoma cell line SK-MEL-28 was obtained from American Type Culture Collection (ATCC, Manassas, VA, USA) and was maintained in Eagles’s Minimum Essential Medium (EMEM) supplemented with 10% (v/v) FBS and antibiotics at 37 °C in a humidified atmosphere containing 7.5% CO2. Cell viability was evaluated using the MTT cell proliferation assay. Cells were evaluated for apoptosis using a cell death detection ELISA (Cell Death Detection ELISAPLUS, Roche Diagnostics, Barcelona, Spain). […] The amount of nucleosomes is photometrically quantified at 405 nm by the peroxidase activity retained in the immunocomplexes. Apoptosis was defined as the specific enrichment of mono- and oligonucleosomes in the cytoplasm and was calculated by dividing the absorbance of treated samples with the absorbance of untreated samples after correcting for the number of cells. […]
A general note: ELISA stands for enzyme-linked immunosorbent assay.

Data set [1] can be described thus: UV-visible absorption spectra at different pH (ionization state). Format: physicochemical. To be noted: UV-visible spectra; pH range 5.0–9.0 for TMCG and TMECG. How it is done:
It has been shown that the protonation state of methotrexate, trimethoprim, and pyrimethamine modulates the binding of these antifolates to DHFRs from several sources. […] The absorbance maximum at 278 nm undergoes a bathochromic displacement to 328 nm, which is greatest at alkaline pH (pH > 9.0).
To determine if the spectral changes in the SYCG and SYECG solutions with pH were due to an irreversible oxidation reaction or to a reversible protonation step, a pH titration experiment was carried out. An alkaline solution of SYCG and SYECG (pH 8.5) was acidified to pH 2.5 by the addition of dilute HCl. A change in the spectra was observed, indicating a reversible protonation reaction. The spectral changes with pH observed in SYCG and SYECG can be attributed to the hydroxyl group para on the ester-bonded gallate moiety. At acidic pH, these derivatives are mainly present as protonated species, whereas at basic pH or values near neutrality, these derivatives evolve toward the deprotonated species, which are stabilized by resonance (Scheme 3). […] As described, an important factor that decreases catechin bioavailability might be their inability to easily cross cellular membranes by passive diffusion. The presence of several hydroxyl groups in these molecules gives them a high hydrophilic character, which increases the difficulty of passing across lipid membranes.
Ultraviolet-visible absorption spectra of catechins at different pHs were recorded on a UV-Vis Perkin-Elmer Lambda-2 spectrophotometer with a spectral bandwidth of 1 nm at a scan speed of 60 nm s^−1. The experiments were performed in the same buffer as described for DHFR binding studies, and the ionic strength remained constant at an optimum value of 0.15 over the pH range that was used. The pH of the reaction was measured before and after the experiment.

Data set [2] has as its system SK-MEL-28 melanoma cell line. Kind of data set: MTT cell proliferation assay in melanoma cells. Format: cell-based, human. To be noted: Homo sapiens, SK-MEL-28, 144 h, SK-MEL-28, after 6 days of treatment; read-out: Half-maximal inhibitory concentration (IC50). The source says: Antifolate compounds are designed to inhibit DHFR and act specifically during DNA and RNA synthesis, making them more toxic to rapidly dividing cells. Recent evidences indicate that tea-catechins and derived compounds could inhibit DHFR and block the folate cycle in cancer cells. Although inhibition of DHFR by these compounds could be a plausible explanation for their antifolate activity, the possibility of these compounds targeting (folate)-enzymes other than DHFR could not be excluded. To determine whether these newly synthetized compounds disrupt the folate cycle in cell culture, we studied their antiproliferative activity in the melanoma cell line SK-MEL-28 (Table 3). Concentration- and time-dependent effects were analyzed using the colorimetric 4,5-(3)-dimethylthiazol-2-yl)-2,5-diphenyltetrazolium bromide (MTT) method.
The human melanoma cell line SK-MEL-28 was obtained from American Type Culture Collection (ATCC, Manassas, VA, USA) and was maintained in Eagles’s Minimum Essential Medium (EMEM) supplemented with 10% (v/v) FBS and antibiotics at 37 °C in a humidified atmosphere containing 7.5% CO2. Cell viability was evaluated using the MTT cell proliferation assay. Cells were evaluated for apoptosis using a cell death detection ELISA (Cell Death Detection ELISAPLUS, Roche Diagnostics, Barcelona, Spain). The principle of this test is the detection of mono- and oligonucleosomes in the cytoplasmic fractions of cell lysates using biotinylated anti-histone and peroxidase-coupled anti-DNA antibodies. The amount of nucleosomes is photometrically quantified at 405 nm by the peroxidase activity retained in the immunocomplexes. Apoptosis was defined as the specific enrichment of mono- and oligonucleosomes in the cytoplasm and was calculated by dividing the absorbance of treated samples with the absorbance of untreated samples after correcting for the number of cells. The induction of apoptosis in each melanoma cell line after a 7 h treatment with 2 μM staurosporin (100% apoptotic cells) was used to calculate the number of apoptotic cells. For these assays, cells were plated in a 96-well plate at a density of 1000–2000 cells/well. Compounds were added once at the beginning of the experiments.

Data set [3] concerns the target T1, bovine serum albumin (BSA) (Bos taurus, UniProt P02769).
T1 construct: purchased Sigma-Aldrich
Put plainly: BSA binding by fluorescence quenching. The source says:
Upon progressive additions of various concentrations of EGCG and TMCG to BSA, the emission intensity decreases, as shown in Figure 4(a). The quenching of the fluorescence intensity of BSA implies that the catechins bind at close proximity to the tryptophan and tyrosine residues and that the molecular arrangement of BSA is affected by the interactions. […] The binding constants (KA) for the BSA-EGCG and BSA-TMCG complexes are 1.54 × 10^7 M^−1 and 1.9 × 10^5 M^−1, respectively (Table 4), and their plots are shown in Figure 4(b). […] In light of these findings, it can be reasoned that the binding affinity to BSA is higher for the galloylated catechin than for the methylated one, which emphasises that the three phenolic groups can enhance hydrogen bonding between BSA and EGCG [25].
Fluorescence measurements were made on an automatic scanning Perkin-Elmer LS50B spectrofluorometer with 1.0 cm light path cells equipped with a 150 W xenon (XBO) light source. In all experiments, the fluorescence of BSA (5 × 10^−6 M) in 50 mM phosphate buffer of pH 7.5 was followed by excitation at 280 nm. The binding affinities of EGCG and TMCG with BSA in terms of binding constants were determined using the following equation [25]: log (F0−F)/F = log KA + n log [Q](1) where KA is the binding constant, n is the number of binding sites, F0 is the fluorescence intensity of free BSA and F is the consequent fluorescence upon the addition of catechins (Q). A plot of log (F0-F)/F against log [Q] was used to determine the values of KA and n from the intercept and the slope, respectively.

T1 sequence (P02769 25-607): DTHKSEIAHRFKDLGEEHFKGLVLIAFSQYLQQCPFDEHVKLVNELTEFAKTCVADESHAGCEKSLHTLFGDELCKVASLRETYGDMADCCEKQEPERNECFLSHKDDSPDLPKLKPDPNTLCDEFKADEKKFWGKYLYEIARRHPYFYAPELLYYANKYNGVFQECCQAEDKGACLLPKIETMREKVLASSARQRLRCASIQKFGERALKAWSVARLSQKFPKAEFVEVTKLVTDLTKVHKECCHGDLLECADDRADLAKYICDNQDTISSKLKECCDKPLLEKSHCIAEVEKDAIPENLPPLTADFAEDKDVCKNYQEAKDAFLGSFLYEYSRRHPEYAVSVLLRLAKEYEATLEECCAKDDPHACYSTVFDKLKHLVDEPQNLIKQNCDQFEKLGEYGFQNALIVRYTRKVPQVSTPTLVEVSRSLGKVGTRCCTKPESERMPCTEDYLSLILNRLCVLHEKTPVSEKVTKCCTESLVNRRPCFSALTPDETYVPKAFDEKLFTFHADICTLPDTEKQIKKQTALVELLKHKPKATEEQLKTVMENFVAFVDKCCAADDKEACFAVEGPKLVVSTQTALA

In the case of `COc1cc(C(=O)O[C@H]2Cc3c(O)cc(O)cc3O[C@@H]2c2ccc(O)c(O)c2)cc(OC)c1OC` [TMCG], the “Proapoptotic activity of TMCG in the presence of warfarin” value with SK-MEL-28 melanoma cells is given as “significantly increased”. Further, the “Effect of pH on absorption spectra” value in data set [1] is given as “no significant changes”. In addition, in data set [2], the IC50 amounted to 1.5 ± 0.4 µM. In addition, the Kd in data set [3] (25 °C, pH 7.5, no site marker, read-out: Binding constant (KA) for BSA-catechin complex (converted)) is 5.26 µM. In data set [3] (catechin-BSA complex, double logarithmic plot), the “Number of binding sites n” value is given as “approximately 1”.
